Results reported in the NIST ThermoML archive (doi:10.1016/j.jct.2011.01.014).
Numbers after ± are expanded uncertainties.

Test: xn = mol fraction of the nth substance listed
Details: 101 kPa, Liquid; for speed of sound: sound velocity cell; for mass density: Vibrating tube method

## CC(=O)[O-].[NH3+]CCO [2-hydroxyethylammonium acetate] + CCO
305.65 K, x1 = 0.0497
  speed of sound: 1161.8 ± 1.4 m/s
305.65 K, x1 = 0.101
  speed of sound: 1201.5 ± 1.4 m/s
305.65 K, x1 = 0.201
  speed of sound: 1273.6 ± 1.6 m/s
305.65 K, x1 = 0.3009
  speed of sound: 1359.9 ± 1.7 m/s
305.65 K, x1 = 0.4057
  speed of sound: 1421.5 ± 1.9 m/s
305.65 K, x1 = 0.4946
  speed of sound: 1483 ± 2.1 m/s
305.65 K, x1 = 0.603
  speed of sound: 1556.5 ± 2.3 m/s
305.65 K, x1 = 0.6765
  speed of sound: 1601.8 ± 2.4 m/s
305.65 K, x1 = 0.7918
  speed of sound: 1660.8 ± 2.7 m/s
305.65 K, x1 = 0.8825
  speed of sound: 1708.2 ± 2.9 m/s
305.65 K, x1 = 0.9539
  speed of sound: 1748.7 ± 3.1 m/s
305.65 K, x1 = 1
  speed of sound: 1773.4 ± 3.2 m/s
308.15 K, x1 = 0.0497
  mass density: 813.395 ± 0.71 kg/m3
  speed of sound: 1153.6 ± 1.4 m/s
308.15 K, x1 = 0.101
  mass density: 846.797 ± 0.6 kg/m3
  speed of sound: 1193.5 ± 1.4 m/s
308.15 K, x1 = 0.201
  mass density: 902.073 ± 0.56 kg/m3
  speed of sound: 1266 ± 1.6 m/s
308.15 K, x1 = 0.3009
  mass density: 949.706 ± 0.53 kg/m3
  speed of sound: 1352.8 ± 1.7 m/s
308.15 K, x1 = 0.4057
  mass density: 992.164 ± 0.59 kg/m3
  speed of sound: 1414.7 ± 1.9 m/s
308.15 K, x1 = 0.4946
  mass density: 1023.13 ± 0.71 kg/m3
  speed of sound: 1476.4 ± 2.1 m/s
308.15 K, x1 = 0.603
  mass density: 1056.17 ± 0.97 kg/m3
  speed of sound: 1550.2 ± 2.3 m/s
308.15 K, x1 = 0.6765
  mass density: 1076.23 ± 1.2 kg/m3
  speed of sound: 1595.6 ± 2.4 m/s
308.15 K, x1 = 0.7918
  mass density: 1104.25 ± 1.6 kg/m3
  speed of sound: 1654.6 ± 2.7 m/s
308.15 K, x1 = 0.8825
  mass density: 1123.77 ± 2 kg/m3
  speed of sound: 1702.2 ± 2.9 m/s
308.15 K, x1 = 0.9539
  mass density: 1136.79 ± 2.3 kg/m3
  speed of sound: 1742.2 ± 3.1 m/s
308.15 K, x1 = 1
  mass density: 1143.39 ± 2.5 kg/m3
  speed of sound: 1767.9 ± 3.2 m/s
310.65 K, x1 = 0.0497
  mass density: 811.269 ± 0.71 kg/m3
  speed of sound: 1145.4 ± 1.4 m/s
310.65 K, x1 = 0.101
  mass density: 844.752 ± 0.6 kg/m3
  speed of sound: 1185.5 ± 1.4 m/s
310.65 K, x1 = 0.201
  mass density: 900.153 ± 0.56 kg/m3
  speed of sound: 1258.5 ± 1.6 m/s
310.65 K, x1 = 0.3009
  mass density: 947.892 ± 0.53 kg/m3
  speed of sound: 1345.7 ± 1.7 m/s
310.65 K, x1 = 0.4057
  mass density: 990.442 ± 0.59 kg/m3
  speed of sound: 1407.8 ± 1.9 m/s
310.65 K, x1 = 0.4946
  mass density: 1021.48 ± 0.71 kg/m3
  speed of sound: 1469.7 ± 2.1 m/s
310.65 K, x1 = 0.603
  mass density: 1054.53 ± 0.97 kg/m3
  speed of sound: 1544 ± 2.3 m/s
310.65 K, x1 = 0.6765
  mass density: 1074.71 ± 1.2 kg/m3
  speed of sound: 1589.6 ± 2.4 m/s
310.65 K, x1 = 0.7918
  mass density: 1102.76 ± 1.6 kg/m3
  speed of sound: 1648.5 ± 2.7 m/s
310.65 K, x1 = 0.8825
  mass density: 1122.31 ± 2 kg/m3
  speed of sound: 1696.2 ± 2.9 m/s
310.65 K, x1 = 0.9539
  mass density: 1135.37 ± 2.3 kg/m3
  speed of sound: 1735.9 ± 3.1 m/s
310.65 K, x1 = 1
  mass density: 1141.96 ± 2.5 kg/m3
  speed of sound: 1762.5 ± 3.2 m/s
313.15 K, x1 = 0.0497
  mass density: 809.131 ± 0.71 kg/m3
  speed of sound: 1137.2 ± 1.4 m/s
313.15 K, x1 = 0.101
  mass density: 842.694 ± 0.6 kg/m3
  speed of sound: 1177.6 ± 1.4 m/s
313.15 K, x1 = 0.201
  mass density: 898.225 ± 0.56 kg/m3
  speed of sound: 1251 ± 1.6 m/s
313.15 K, x1 = 0.3009
  mass density: 946.069 ± 0.54 kg/m3
  speed of sound: 1338.7 ± 1.7 m/s
313.15 K, x1 = 0.4057
  mass density: 988.723 ± 0.59 kg/m3
  speed of sound: 1401 ± 1.9 m/s
313.15 K, x1 = 0.4946
  mass density: 1019.83 ± 0.71 kg/m3
  speed of sound: 1463.2 ± 2.1 m/s
313.15 K, x1 = 0.603
  mass density: 1052.87 ± 0.96 kg/m3
  speed of sound: 1537.7 ± 2.3 m/s
313.15 K, x1 = 0.6765
  mass density: 1073.17 ± 1.2 kg/m3
  speed of sound: 1583.5 ± 2.4 m/s
313.15 K, x1 = 0.7918
  mass density: 1101.31 ± 1.6 kg/m3
  speed of sound: 1642.5 ± 2.7 m/s
313.15 K, x1 = 0.8825
  mass density: 1120.85 ± 2 kg/m3
  speed of sound: 1690.2 ± 2.9 m/s
313.15 K, x1 = 0.9539
  mass density: 1133.96 ± 2.3 kg/m3
  speed of sound: 1729.9 ± 3.1 m/s
313.15 K, x1 = 1
  mass density: 1140.55 ± 2.5 kg/m3
  speed of sound: 1757.2 ± 3.2 m/s
315.65 K, x1 = 0.0497
  mass density: 806.984 ± 0.71 kg/m3
  speed of sound: 1129.1 ± 1.4 m/s
315.65 K, x1 = 0.101
  mass density: 840.628 ± 0.6 kg/m3
  speed of sound: 1169.7 ± 1.4 m/s
315.65 K, x1 = 0.201
  mass density: 896.29 ± 0.56 kg/m3
  speed of sound: 1243.5 ± 1.6 m/s
315.65 K, x1 = 0.3009
  mass density: 944.245 ± 0.54 kg/m3
  speed of sound: 1331.6 ± 1.7 m/s
315.65 K, x1 = 0.4057
  mass density: 986.994 ± 0.59 kg/m3
  speed of sound: 1394.2 ± 1.9 m/s
315.65 K, x1 = 0.4946
  mass density: 1018.18 ± 0.71 kg/m3
  speed of sound: 1456.6 ± 2.1 m/s
315.65 K, x1 = 0.603
  mass density: 1051.28 ± 0.96 kg/m3
  speed of sound: 1531.4 ± 2.3 m/s
315.65 K, x1 = 0.6765
  mass density: 1071.63 ± 1.2 kg/m3
  speed of sound: 1577.4 ± 2.4 m/s
315.65 K, x1 = 0.7918
  mass density: 1099.86 ± 1.6 kg/m3
  speed of sound: 1636.6 ± 2.7 m/s
315.65 K, x1 = 0.8825
  mass density: 1119.38 ± 1.9 kg/m3
  speed of sound: 1684.4 ± 2.9 m/s
315.65 K, x1 = 0.9539
  mass density: 1132.54 ± 2.3 kg/m3
  speed of sound: 1723.9 ± 3.1 m/s
315.65 K, x1 = 1
  mass density: 1139.18 ± 2.5 kg/m3
  speed of sound: 1751.9 ± 3.2 m/s
318.15 K, x1 = 0.0497
  mass density: 804.825 ± 0.72 kg/m3
  speed of sound: 1120.9 ± 1.4 m/s
318.15 K, x1 = 0.101
  mass density: 838.551 ± 0.6 kg/m3
  speed of sound: 1161.8 ± 1.4 m/s
318.15 K, x1 = 0.201
  mass density: 894.347 ± 0.56 kg/m3
  speed of sound: 1235.9 ± 1.6 m/s
318.15 K, x1 = 0.3009
  mass density: 942.413 ± 0.54 kg/m3
  speed of sound: 1324.5 ± 1.7 m/s
318.15 K, x1 = 0.4057
  mass density: 985.266 ± 0.59 kg/m3
  speed of sound: 1387.3 ± 1.9 m/s
318.15 K, x1 = 0.4946
  mass density: 1016.52 ± 0.71 kg/m3
  speed of sound: 1450 ± 2.1 m/s
318.15 K, x1 = 0.603
  mass density: 1049.69 ± 0.96 kg/m3
  speed of sound: 1525.2 ± 2.3 m/s
318.15 K, x1 = 0.6765
  mass density: 1070.09 ± 1.2 kg/m3
  speed of sound: 1571.3 ± 2.4 m/s
318.15 K, x1 = 0.7918
  mass density: 1098.4 ± 1.6 kg/m3
  speed of sound: 1630.7 ± 2.7 m/s
318.15 K, x1 = 0.8825
  mass density: 1117.9 ± 1.9 kg/m3
  speed of sound: 1678.6 ± 2.9 m/s
318.15 K, x1 = 0.9539
  mass density: 1131.12 ± 2.3 kg/m3
  speed of sound: 1718.1 ± 3.1 m/s
318.15 K, x1 = 1
  mass density: 1137.82 ± 2.5 kg/m3
  speed of sound: 1746.5 ± 3.2 m/s
320.65 K, x1 = 0.0497
  mass density: 802.647 ± 0.72 kg/m3
  speed of sound: 1112.8 ± 1.4 m/s
320.65 K, x1 = 0.101
  mass density: 836.46 ± 0.61 kg/m3
  speed of sound: 1153.9 ± 1.4 m/s
320.65 K, x1 = 0.201
  mass density: 892.395 ± 0.56 kg/m3
  speed of sound: 1228.4 ± 1.6 m/s
320.65 K, x1 = 0.3009
  mass density: 940.573 ± 0.54 kg/m3
  speed of sound: 1317.5 ± 1.7 m/s
320.65 K, x1 = 0.4057
  mass density: 983.53 ± 0.59 kg/m3
  speed of sound: 1380.5 ± 1.9 m/s
320.65 K, x1 = 0.4946
  mass density: 1014.85 ± 0.7 kg/m3
  speed of sound: 1443.5 ± 2.1 m/s
320.65 K, x1 = 0.603
  mass density: 1048.1 ± 0.95 kg/m3
  speed of sound: 1519 ± 2.3 m/s
320.65 K, x1 = 0.6765
  mass density: 1068.53 ± 1.2 kg/m3
  speed of sound: 1565.3 ± 2.4 m/s
320.65 K, x1 = 0.7918
  mass density: 1096.93 ± 1.6 kg/m3
  speed of sound: 1624.8 ± 2.7 m/s
320.65 K, x1 = 0.8825
  mass density: 1116.49 ± 1.9 kg/m3
  speed of sound: 1672.8 ± 2.9 m/s
320.65 K, x1 = 0.9539
  mass density: 1129.69 ± 2.3 kg/m3
  speed of sound: 1712.4 ± 3.1 m/s
320.65 K, x1 = 1
  mass density: 1136.45 ± 2.5 kg/m3
  speed of sound: 1741.3 ± 3.2 m/s
323.15 K, x1 = 0.0497
  mass density: 800.468 ± 0.72 kg/m3
  speed of sound: 1104.7 ± 1.4 m/s
323.15 K, x1 = 0.101
  mass density: 834.368 ± 0.61 kg/m3
  speed of sound: 1146 ± 1.4 m/s
323.15 K, x1 = 0.201
  mass density: 890.443 ± 0.57 kg/m3
  speed of sound: 1221 ± 1.6 m/s
323.15 K, x1 = 0.3009
  mass density: 938.735 ± 0.54 kg/m3
  speed of sound: 1310.5 ± 1.7 m/s
323.15 K, x1 = 0.4057
  mass density: 981.801 ± 0.59 kg/m3
  speed of sound: 1373.7 ± 1.9 m/s
323.15 K, x1 = 0.4946
  mass density: 1013.19 ± 0.7 kg/m3
  speed of sound: 1437 ± 2.1 m/s
323.15 K, x1 = 0.603
  mass density: 1046.54 ± 0.95 kg/m3
  speed of sound: 1512.7 ± 2.3 m/s
323.15 K, x1 = 0.6765
  mass density: 1066.98 ± 1.2 kg/m3
  speed of sound: 1559.4 ± 2.5 m/s
323.15 K, x1 = 0.7918
  mass density: 1095.47 ± 1.6 kg/m3
  speed of sound: 1618.9 ± 2.7 m/s
323.15 K, x1 = 0.8825
  mass density: 1115.06 ± 1.9 kg/m3
  speed of sound: 1667.2 ± 2.9 m/s
323.15 K, x1 = 0.9539
  mass density: 1128.27 ± 2.3 kg/m3
  speed of sound: 1706.7 ± 3.1 m/s
323.15 K, x1 = 1
  mass density: 1135.08 ± 2.5 kg/m3
  speed of sound: 1736 ± 3.2 m/s
